Results from ChEMBL document CHEMBL4219144, “Novel 6-aryl substituted 4-pyrrolidineaminoquinazoline derivatives as potent phosphoinositide 3-kinase delta (PI3Kδ) inhibitors” (Bioorg Med Chem, 2018).

Key:
SU-DHL-6 = assay: Antiproliferative activity against human SUDHL6 cells after 72 hrs by CCK8 assay; format: functional, cell-based; conditions: SU-DHL-6, 72 h
Ramos = assay: cells; format: functional, cell-based; conditions: Homo sapiens, 72 h
Description: Antiproliferative activity against human Ramos cells after 72 hrs by MTT assay

RPMI-8226 = assay: Antiproliferative activity against human RPMI8226 cells after 72 hrs by MTT assay; format: functional, cell-based; conditions: RPMI-8226, 72 h
[1] = Cmax in Sprague-Dawley rat at 3 mg/kg, po by LC-MS/MS analysis; format: ADME, organism-based; set-up: dose 3 mg/kg, route oral; conditions: in vivo
[2] = AUC in Sprague-Dawley rat at 3 mg/kg, po by LC-MS/MS analysis; format: ADME, organism-based; conditions: in vivo
Raji = assay: cells; format: functional, cell-based; conditions: Homo sapiens, 72 h
Description: Antiproliferative activity against human Raji cells after 72 hrs by MTT assay

[3] = Oral bioavailability in Sprague-Dawley rat at 3 mg/kg by LC-MS/MS analysis; format: ADME, organism-based; conditions: in vivo
[4] = biological target: T1, Phosphatidylinositol 4,5-bisphosphate 3-kinase catalytic subunit delta isoform (Homo sapiens) (UniProt O00329); assay: Inhibition of PI3K p110delta (unknown origin) at 100 nM using lipid substrate after 40 mins by kinase-Glo assay relative to control
T1 sequence (whole entry): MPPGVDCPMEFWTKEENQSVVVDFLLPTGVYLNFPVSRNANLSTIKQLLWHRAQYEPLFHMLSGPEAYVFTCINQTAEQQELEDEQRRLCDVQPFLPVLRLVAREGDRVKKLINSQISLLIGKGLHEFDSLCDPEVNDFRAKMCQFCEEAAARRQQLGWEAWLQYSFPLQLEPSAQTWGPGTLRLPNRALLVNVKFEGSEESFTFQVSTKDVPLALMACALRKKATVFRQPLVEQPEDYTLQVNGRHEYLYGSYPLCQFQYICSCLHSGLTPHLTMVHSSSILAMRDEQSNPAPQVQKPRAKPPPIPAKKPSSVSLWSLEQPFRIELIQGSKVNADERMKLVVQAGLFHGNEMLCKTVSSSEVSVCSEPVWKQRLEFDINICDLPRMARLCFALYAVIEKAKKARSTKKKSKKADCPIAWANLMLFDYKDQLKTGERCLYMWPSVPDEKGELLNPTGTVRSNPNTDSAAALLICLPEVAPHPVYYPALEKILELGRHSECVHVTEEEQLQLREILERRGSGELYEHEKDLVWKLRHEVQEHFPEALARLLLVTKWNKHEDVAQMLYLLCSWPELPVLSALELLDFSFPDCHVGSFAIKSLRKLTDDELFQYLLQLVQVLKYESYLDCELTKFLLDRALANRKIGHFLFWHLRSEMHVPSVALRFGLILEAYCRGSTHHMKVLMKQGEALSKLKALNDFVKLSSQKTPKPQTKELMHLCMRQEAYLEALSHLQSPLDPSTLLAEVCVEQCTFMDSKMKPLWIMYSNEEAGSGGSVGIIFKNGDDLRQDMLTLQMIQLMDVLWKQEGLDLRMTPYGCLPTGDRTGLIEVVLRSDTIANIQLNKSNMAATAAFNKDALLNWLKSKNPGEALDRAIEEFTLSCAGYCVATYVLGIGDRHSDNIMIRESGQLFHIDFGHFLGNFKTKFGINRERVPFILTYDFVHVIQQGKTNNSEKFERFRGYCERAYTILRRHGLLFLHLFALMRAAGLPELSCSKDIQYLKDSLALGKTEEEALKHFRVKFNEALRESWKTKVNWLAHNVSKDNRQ

[5] = biological target: T2, Phosphatidylinositol 4,5-bisphosphate 3-kinase catalytic subunit delta isoform (Homo sapiens, UniProt O00329); assay: Inhibition of PI3K p110delta (unknown origin) using lipid substrate after 40 mins by kinase-Glo assay
T2 sequence (O00329 whole entry): T1 sequence (whole entry)

[6] = biological target: Phosphatidylinositol 4,5-bisphosphate 3-kinase catalytic subunit beta isoform (Homo sapiens, UniProt P42338); assay: Inhibition of PI3K p110beta (unknown origin) using lipid substrate after 40 mins by kinase-Glo assay
[7] = biological target: Phosphatidylinositol 4,5-bisphosphate 3-kinase catalytic subunit alpha isoform (Homo sapiens, UniProt P42336); assay: Inhibition of PI3K p110alpha (unknown origin) using lipid substrate after 40 mins by kinase-Glo assay
[8] = biological target: Phosphatidylinositol 4,5-bisphosphate 3-kinase catalytic subunit gamma isoform (Homo sapiens, UniProt P48736); assay: Inhibition of PI3K p110gamma (unknown origin) using lipid substrate after 40 mins by kinase-Glo assay
[9] = biological target: T2, Phosphatidylinositol 4,5-bisphosphate 3-kinase catalytic subunit delta isoform; assay: Inhibition of PI3Kdelta (unknown origin)
[10] = AUC in Sprague-Dawley rat at 10 mg/kg, po by LC-MS/MS analysis; format: ADME, organism-based; conditions: in vivo
Rattus norvegicus [11] = assay: Half life in Sprague-Dawley rat at 10 mg/kg, po by LC-MS/MS analysis; format: ADME, organism-based; conditions: in vivo
Homo sapiens [12] = species: Homo sapiens; assay: Selectivity ratio of IC50 for PI3K p110beta (unknown origin) to IC50 for PI3K p110delta (unknown origin)
[13] = Cmax in Sprague-Dawley rat at 10 mg/kg, po by LC-MS/MS analysis; format: ADME, organism-based; set-up: dose 10 mg/kg, route oral; conditions: in vivo
Rattus norvegicus [14] = assay: Clearance in Sprague-Dawley rat at 10 mg/kg, po by LC-MS/MS analysis; format: ADME, organism-based; conditions: in vivo
Homo sapiens [15] = species: Homo sapiens; assay: Selectivity ratio of IC50 for PI3K p110gamma (unknown origin) to IC50 for PI3K p110delta (unknown origin)
Homo sapiens [16] = species: Homo sapiens; assay: Selectivity ratio of IC50 for PI3K p110alpha (unknown origin) to IC50 for PI3K p110delta (unknown origin)
Rattus norvegicus [17] = assay: Apparent volume of distribution in Sprague-Dawley rat at 10 mg/kg, po by LC-MS/MS analysis; format: ADME, organism-based; conditions: in vivo

Sequence of Phosphatidylinositol 4,5-bisphosphate 3-kinase catalytic subunit gamma isoform (P48736 whole entry, canonical isoform): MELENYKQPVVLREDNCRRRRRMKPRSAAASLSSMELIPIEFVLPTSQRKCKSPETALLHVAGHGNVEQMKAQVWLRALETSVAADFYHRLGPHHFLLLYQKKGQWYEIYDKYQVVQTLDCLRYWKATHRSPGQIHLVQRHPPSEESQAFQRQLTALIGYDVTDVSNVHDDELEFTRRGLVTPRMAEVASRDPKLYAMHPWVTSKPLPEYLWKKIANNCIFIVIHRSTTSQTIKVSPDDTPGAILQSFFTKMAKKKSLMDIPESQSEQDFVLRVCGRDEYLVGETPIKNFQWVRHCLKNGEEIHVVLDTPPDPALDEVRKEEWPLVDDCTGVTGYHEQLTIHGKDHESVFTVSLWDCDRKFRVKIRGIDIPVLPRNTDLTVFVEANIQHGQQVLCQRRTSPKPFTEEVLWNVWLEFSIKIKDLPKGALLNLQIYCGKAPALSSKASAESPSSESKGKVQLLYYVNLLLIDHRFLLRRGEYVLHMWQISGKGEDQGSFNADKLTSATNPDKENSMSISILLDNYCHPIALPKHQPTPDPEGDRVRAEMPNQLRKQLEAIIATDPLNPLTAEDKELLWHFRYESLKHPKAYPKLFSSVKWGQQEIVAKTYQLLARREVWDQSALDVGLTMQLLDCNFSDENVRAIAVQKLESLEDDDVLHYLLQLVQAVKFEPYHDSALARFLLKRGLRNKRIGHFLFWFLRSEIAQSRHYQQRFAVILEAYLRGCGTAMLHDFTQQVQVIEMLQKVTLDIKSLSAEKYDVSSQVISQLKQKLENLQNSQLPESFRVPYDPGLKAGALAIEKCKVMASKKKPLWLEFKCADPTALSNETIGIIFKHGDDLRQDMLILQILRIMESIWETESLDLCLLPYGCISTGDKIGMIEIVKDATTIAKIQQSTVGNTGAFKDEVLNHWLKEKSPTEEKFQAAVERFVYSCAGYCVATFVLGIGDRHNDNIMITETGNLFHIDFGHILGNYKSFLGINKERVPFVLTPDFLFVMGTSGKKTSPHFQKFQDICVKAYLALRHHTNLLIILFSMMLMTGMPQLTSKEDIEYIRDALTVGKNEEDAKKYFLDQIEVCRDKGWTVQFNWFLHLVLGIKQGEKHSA
Sequence of Phosphatidylinositol 4,5-bisphosphate 3-kinase catalytic subunit beta isoform (P42338 whole entry, canonical isoform): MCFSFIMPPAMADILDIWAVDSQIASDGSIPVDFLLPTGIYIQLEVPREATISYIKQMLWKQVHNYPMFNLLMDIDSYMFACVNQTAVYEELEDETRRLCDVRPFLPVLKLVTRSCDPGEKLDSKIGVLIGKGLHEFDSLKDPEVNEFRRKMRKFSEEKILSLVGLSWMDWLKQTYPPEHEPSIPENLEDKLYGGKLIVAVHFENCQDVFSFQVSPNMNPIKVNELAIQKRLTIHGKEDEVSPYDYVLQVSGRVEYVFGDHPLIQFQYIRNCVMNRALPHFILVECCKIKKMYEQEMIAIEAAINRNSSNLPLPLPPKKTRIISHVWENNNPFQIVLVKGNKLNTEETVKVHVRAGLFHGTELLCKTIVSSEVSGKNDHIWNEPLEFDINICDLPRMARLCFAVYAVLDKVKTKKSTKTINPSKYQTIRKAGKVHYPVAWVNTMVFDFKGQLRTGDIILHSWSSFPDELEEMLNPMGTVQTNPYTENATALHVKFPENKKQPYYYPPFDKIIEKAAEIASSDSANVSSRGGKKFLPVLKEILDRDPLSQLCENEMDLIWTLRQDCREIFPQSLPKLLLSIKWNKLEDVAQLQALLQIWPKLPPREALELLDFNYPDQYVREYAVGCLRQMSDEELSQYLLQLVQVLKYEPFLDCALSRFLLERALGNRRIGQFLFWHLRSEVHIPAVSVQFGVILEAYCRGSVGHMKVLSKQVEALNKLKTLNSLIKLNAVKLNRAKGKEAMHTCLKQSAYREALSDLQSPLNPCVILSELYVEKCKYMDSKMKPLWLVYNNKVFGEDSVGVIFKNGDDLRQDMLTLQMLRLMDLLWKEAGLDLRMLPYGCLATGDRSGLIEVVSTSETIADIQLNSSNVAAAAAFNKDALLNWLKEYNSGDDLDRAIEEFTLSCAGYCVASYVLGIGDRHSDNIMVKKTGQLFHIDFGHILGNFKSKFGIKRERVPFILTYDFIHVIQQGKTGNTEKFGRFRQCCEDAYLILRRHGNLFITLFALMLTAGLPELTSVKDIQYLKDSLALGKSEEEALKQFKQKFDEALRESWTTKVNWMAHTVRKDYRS
Sequence of Phosphatidylinositol 4,5-bisphosphate 3-kinase catalytic subunit alpha isoform (P42336 whole entry, canonical isoform): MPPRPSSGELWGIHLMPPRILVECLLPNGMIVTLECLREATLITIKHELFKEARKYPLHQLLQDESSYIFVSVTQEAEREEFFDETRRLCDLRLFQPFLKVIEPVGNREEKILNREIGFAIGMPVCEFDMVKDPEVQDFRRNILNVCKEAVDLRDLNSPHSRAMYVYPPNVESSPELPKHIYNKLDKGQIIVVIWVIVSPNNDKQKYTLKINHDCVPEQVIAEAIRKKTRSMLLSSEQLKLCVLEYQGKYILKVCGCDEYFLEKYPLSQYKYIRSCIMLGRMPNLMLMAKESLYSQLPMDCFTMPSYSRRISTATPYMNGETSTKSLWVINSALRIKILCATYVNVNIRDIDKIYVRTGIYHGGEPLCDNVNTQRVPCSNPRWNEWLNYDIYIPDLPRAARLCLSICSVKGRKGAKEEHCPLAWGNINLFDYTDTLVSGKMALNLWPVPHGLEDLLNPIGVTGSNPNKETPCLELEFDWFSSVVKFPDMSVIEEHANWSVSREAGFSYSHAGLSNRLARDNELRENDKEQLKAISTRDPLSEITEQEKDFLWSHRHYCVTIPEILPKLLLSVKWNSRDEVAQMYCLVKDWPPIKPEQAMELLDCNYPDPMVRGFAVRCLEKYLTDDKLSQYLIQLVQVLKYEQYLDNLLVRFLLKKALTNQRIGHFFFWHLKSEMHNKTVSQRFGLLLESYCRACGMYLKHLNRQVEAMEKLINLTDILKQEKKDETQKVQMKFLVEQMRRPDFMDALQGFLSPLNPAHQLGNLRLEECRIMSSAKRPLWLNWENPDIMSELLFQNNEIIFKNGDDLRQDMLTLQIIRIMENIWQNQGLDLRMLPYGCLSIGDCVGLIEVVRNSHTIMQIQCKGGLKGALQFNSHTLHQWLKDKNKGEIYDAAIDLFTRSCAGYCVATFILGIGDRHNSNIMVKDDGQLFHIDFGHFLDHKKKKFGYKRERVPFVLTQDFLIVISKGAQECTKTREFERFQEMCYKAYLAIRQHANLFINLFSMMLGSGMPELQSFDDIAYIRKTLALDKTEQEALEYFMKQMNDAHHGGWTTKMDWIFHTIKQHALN

SMILES	inhibition [4]	IC50 [5]	further results
CC[C@H](Nc1ncnc2[nH]cnc12)c1nc2cccc(F)c2c(=O)n1-c1ccccc1 [IDELALISIB]	96%	–	IC50 (SU-DHL-6): 650 nM; IC50 (Ramos): > 10000 nM; IC50 (RPMI-8226): 5490 nM; Cmax [1]: 129 ng/mL; AUC [2]: 422 ng·h/mL; IC50 (Raji): 9950 nM; bioavailability [3]: 39%
COc1ccc(-c2ccc3ncnc(N[C@H]4CCNC4)c3c2)cn1	38%	–	–
COc1ccc(-c2ccc3ncnc(N[C@H]4CCN(C(=O)C(C)(C)C)C4)c3c2)cn1	79%	–	–
COc1ccc(-c2ccc3ncnc(N[C@H]4CCN(C(=O)CC(C)(C)C)C4)c3c2)cn1	94%	4.6 nM	–
CC(C)(C)OC(=O)N1CC[C@H](Nc2ncnc3ccc(-c4ccc(N)nc4)cc23)C1	17%	–	–
COc1ncc(-c2ccc3ncnc(N[C@H]4CCN(C(=O)C5CC5)C4)c3c2)cc1C#N	97%	5.5 nM	–
COc1ccc(-c2ccc3ncnc(N[C@H]4CCN(C(=O)C5CCC5)C4)c3c2)cn1	98%	5.2 nM	–
COc1ccc(-c2ccc3ncnc(N[C@H]4CCN(C(=O)C5CCCCC5)C4)c3c2)cn1	85%	2.9 nM	–
COc1ccc(-c2ccc3ncnc(N[C@H]4CCN(S(=O)(=O)C5CC5)C4)c3c2)cn1	83%	13.5 nM	–
C=CC(=O)N1CC[C@H](Nc2ncnc3ccc(-c4ccc(OC)nc4)cc23)C1	0%	–	–
COc1ncc(-c2ccc3ncnc(N[C@H]4CCN(C(=O)OC(C)(C)C)C4)c3c2)cc1[N+](=O)[O-]	51%	–	–
O=C(C1CC1)N1CC[C@H](Nc2ncnc3ccc(-c4ccc(OC(F)(F)F)cc4)cc23)C1	13%	–	–
COc1ncc(-c2ccc3ncnc(N[C@H]4CCN(C(=O)C5CCOCC5)C4)c3c2)cc1[N+](=O)[O-]	99%	3.1 nM	IC50 (SU-DHL-6): 5970 nM; IC50 [6]: 585 nM; IC50 (Ramos): 780 nM; IC50 (RPMI-8226): 2710 nM; IC50 [7]: 26.7 nM; IC50 (Raji): 1480 nM; IC50 [8]: 199 nM
COc1ccc(-c2ccc3ncnc(N[C@@H]4CCN(C(=O)OC(C)(C)C)C4)c3c2)cn1	0%	–	–
NC(=O)c1cc(-c2ccc3ncnc(-c4cccc(C(=O)NCCN5CCOCC5)c4)c3c2)ccc1Cl	–	–	IC50 [9]: 17 nM
CC(C)(C)OC(=O)N1CC[C@H](Nc2ncnc3ccc(-c4ccc(OC(F)(F)F)cc4)cc23)C1	2%	–	–
CC(C)(C)OC(=O)N1CC[C@H](Nc2ncnc3ccc(-c4cnc(N)nc4)cc23)C1	44%	–	–
COc1ncc(-c2ccc3ncnc(N[C@H]4CCN(C(=O)C5CCOCC5)C4)c3c2)cc1C#N	99%	2.7 nM	IC50 (SU-DHL-6): 4550 nM; IC50 [6]: 264 nM; AUC [10]: 524 ng·h/mL; t1/2 (Rattus norvegicus [11]): 2.99 h; IC50 (Ramos): 570 nM; IC50 (RPMI-8226): 4340 nM; IC50 [7]: 25.6 nM; Ratio IC50 (Homo sapiens [12]): 100; IC50 (Raji): > 10000 nM; Cmax [13]: 664 ng/mL; CL (Rattus norvegicus [14]): 40 mL/min/kg; Ratio IC50 (Homo sapiens [15]): 65; Ratio IC50 (Homo sapiens [16]): 10; IC50 [8]: 174 nM; Vz (Rattus norvegicus [17]): 113 L/kg
COc1ncc(-c2ccc3ncnc(N[C@H]4CCN(C(=O)OC(C)(C)C)C4)c3c2)cc1C#N	88%	18.7 nM	–
COc1ccc(-c2ccc3ncnc(N[C@H]4CCN(C(=O)C5CCCC5)C4)c3c2)cn1	97%	4.4 nM	–
COc1ccc(-c2ccc3ncnc(N[C@H]4CCN(C(=O)OC(C)(C)C)C4)c3c2)cn1	91%	8.1 nM	–
O=C(CCCCCCC(=O)Nc1ccccc1)NO [VORINOSTAT]	–	–	IC50 (RPMI-8226): 660 nM
COc1ccc(-c2ccc3ncnc(N[C@H]4CCN(C(=O)C5CC5)C4)c3c2)cn1	97%	4.5 nM	IC50 (SU-DHL-6): 500 nM; IC50 [6]: 220 nM; IC50 (Ramos): 520 nM; IC50 (RPMI-8226): 1460 nM; IC50 [7]: 25.4 nM; IC50 (Raji): 2130 nM; IC50 [8]: 224 nM

More lines, main results first:

inhibition [4]	IC50 [5]	SMILES	further results
87%	3 nM	COc1ccc(-c2ccc3ncnc(N[C@H]4CCN(C(=O)c5ccccc5)C4)c3c2)cn1	–
74%	–	COc1ccc(-c2ccc3ncnc(N[C@H]4CCN(C(=O)OC(C)(C)C)C4)c3c2)cc1C(N)=O	–
84%	–	COc1ccc(-c2ccc3ncnc(N[C@H]4CCN(C(=O)C5CC5)C4)c3c2)cc1C(N)=O	–
46%	–	COc1ccc(-c2ccc3ncnc(N[C@@H]4CCN(C(=O)C5CCOCC5)C4)c3c2)cn1	–
79%	–	COc1ccc(-c2ccc3ncnc(N[C@H]4CCN(C(=O)Cc5ccccc5)C4)c3c2)cn1	–
79%	–	COc1ccc(-c2ccc3ncnc(N[C@H]4CCN(C(C)=O)C4)c3c2)cn1	–
97%	5.5 nM	COc1ccc(-c2ccc3ncnc(N[C@H]4CCN(C(=O)c5ccco5)C4)c3c2)cn1	–
82%	–	COc1cc(C(N)=O)cc(-c2ccc3ncnc(N[C@H]4CCN(C(=O)OC(C)(C)C)C4)c3c2)c1	–
97%	3.4 nM	COc1ccc(-c2ccc3ncnc(N[C@H]4CCN(C(=O)C5CCOCC5)C4)c3c2)cn1	–
92%	7.8 nM	COc1ccc(-c2ccc3ncnc(N[C@H]4CCN(C(=O)C5CCOCC5)C4)c3c2)cc1C(N)=O	–
